Test results: ChEMBL document CHEMBL3272067, “4-Halovinyl- and 4-ethynyl-4-deformylpyridoxal derivatives and related analogues as potentially irreversible antagonists of vitamin B6” (J Med Chem, 1977)
Calls of active or inactive are those of the source. The rule behind the calls is not given here.

Key:
[1] = biological target: T1, Pyridoxine-5'-phosphate oxidase (Mus musculus) (UniProt Q91XF0); assay: Inhibition of pyridoxine phosphate oxidase in mouse TA3 cells assessed as inhibition of 1 x 10^-7 M pyridoxal-induced cell growth; format: cell-based
T1 sequence (whole entry): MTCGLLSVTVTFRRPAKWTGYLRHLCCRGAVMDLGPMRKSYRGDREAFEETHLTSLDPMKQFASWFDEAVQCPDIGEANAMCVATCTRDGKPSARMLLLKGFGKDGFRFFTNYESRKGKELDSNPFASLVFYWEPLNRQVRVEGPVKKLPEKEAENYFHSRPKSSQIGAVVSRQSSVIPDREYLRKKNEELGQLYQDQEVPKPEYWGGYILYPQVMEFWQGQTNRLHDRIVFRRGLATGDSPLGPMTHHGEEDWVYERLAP

[2] = biological target: T2, Pyridoxine-5'-phosphate oxidase (Homo sapiens, UniProt Q9NVS9); assay: Non-competitive inhibition of pyridoxine phosphate oxidase (unknown origin) assessed as oxidation of pyridoxol 5'-phosphate by Lineweaver-Burk plot analysis
T2 sequence (Q9NVS9 whole entry): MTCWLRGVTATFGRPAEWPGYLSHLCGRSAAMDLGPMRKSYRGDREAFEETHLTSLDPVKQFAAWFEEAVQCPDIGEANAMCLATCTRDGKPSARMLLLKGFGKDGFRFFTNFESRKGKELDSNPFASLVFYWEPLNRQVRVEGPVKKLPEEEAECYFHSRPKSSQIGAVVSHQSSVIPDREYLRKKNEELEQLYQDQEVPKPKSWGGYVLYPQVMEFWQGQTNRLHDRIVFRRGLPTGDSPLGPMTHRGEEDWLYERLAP

[3] = biological target: T1, Pyridoxine-5'-phosphate oxidase (Mus musculus); assay: Inhibition of pyridoxine phosphate oxidase in mouse TA3 cells assessed as inhibition of 1 x 10^-7 M pyridoxal-induced cell growth at 10^-4 M; format: cell-based
[4] = biological target: T1, Pyridoxine-5'-phosphate oxidase (Mus musculus); assay: Inhibition of pyridoxine phosphate oxidase in mouse TA3 cells assessed as inhibition of 10^-5 M pyridoxal-induced cell growth; format: cell-based
[5] = biological target: T3, Pyridoxine-5'-phosphate oxidase (Homo sapiens) (UniProt Q9NVS9); assay: Competitive inhibition of pyridoxine phosphate oxidase (unknown origin) assessed as oxidation of pyridoxol 5'-phosphate by Lineweaver-Burk plot analysis
T3 sequence (whole entry): T2 sequence (Q9NVS9 whole entry)

[6] = biological target: T4, Pyridoxal kinase (Homo sapiens, UniProt O00764); assay: Competitive inhibition of pyridoxal phosphokinase (unknown origin)
T4 sequence (O00764 whole entry): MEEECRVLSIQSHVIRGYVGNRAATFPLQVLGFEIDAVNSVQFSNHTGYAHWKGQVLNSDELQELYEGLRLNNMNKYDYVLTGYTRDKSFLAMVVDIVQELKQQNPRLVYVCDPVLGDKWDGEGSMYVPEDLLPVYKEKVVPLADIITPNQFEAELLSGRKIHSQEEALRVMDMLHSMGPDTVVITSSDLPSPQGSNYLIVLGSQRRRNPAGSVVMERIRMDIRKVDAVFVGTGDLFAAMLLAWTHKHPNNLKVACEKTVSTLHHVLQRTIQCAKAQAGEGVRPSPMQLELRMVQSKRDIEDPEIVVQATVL

[7] = biological target: T4, Pyridoxal kinase; assay: Non-competitive inhibition of pyridoxal phosphokinase (unknown origin)

SMILES	ID50 [1]	also measured
C#Cc1c(COP(=O)(O)O)cnc(C)c1O	3.8 µM	Ki [2]: 0.55 µM
Cc1ncc(CO)c(/C=C/Br)c1O	1.2 ×10⁻⁵ M	
CC/C=C/c1c(COCc2ccccc2)cnc(C)c1OCc1ccccc1	1.5 ×10⁻⁵ M	
CC(=O)c1c(CO)cnc(C)c1O		inhibition [3]: inactive
C=C(Cl)c1c(CO)cnc(C)c1O	9.5 µM	
Cc1ncc(COCc2ccccc2)c(/C=C/Cl)c1OCc1ccccc1	3 µM	
C=C/C=C/c1c(COCc2ccccc2)cnc(C)c1OCc1ccccc1	1.5 ×10⁻⁵ M	
C=Cc1c(CO)cnc(C)c1O	0.0025 µM	growth inhibition (GI) [4]: inactive; inhibition [5]: Active; Ki [6]: 22.5 µM
C#Cc1c(CO)cnc(C)c1O	8 µM	ID50 [4]: 9 ×10⁻⁵ M; Ki [7]: 125 µM
Cc1ncc(CO)c(C)c1O	6.8 ×10⁻⁸ M	growth inhibition (GI) [4]: inactive
